Source: ChEMBL document CHEMBL1142677, “Synthesis, antitumor evaluation, and apoptosis-inducing activity of hydroxylated (E)-stilbenes” (2005)

Key:
[1] = In vitro growth inhibitory concentration against human mammary carcinoma cell line MDA MB 468 using MTT assay; format: functional
[2] = Percent of apoptosis in MDA MB 468 Cell line determined by Annexin-V-FITC/PI analysis at 10 uM; format: functional, Homo sapiens
HCT-116 = experiment: In vitro growth inhibitory concentration against human colon cancer cell line HCT 116; format: functional
[3] = In vitro growth inhibitory concentration against human mammary carcinoma cell line MDA MB 468; format: functional
[4] = Percent of apoptosis in MDA MB 468 Cell line determined by Annexin-V-FITC/PI analysis at 250 nM; format: functional, Homo sapiens

Compound `Oc1cccc(/C=C/c2ccccc2F)c1` has a GI50 [1] of 1.4 µM.
In the case of `Oc1ccc(/C=C/c2cc(O)cc(O)c2)cc1` [RESVERATROL], the Apoptosis [2] is reported as 4%, the GI50 (HCT-116) is reported as over 40 µM and the GI50 [3] is reported as over 40 µM.
For `Oc1ccccc1/C=C/c1ccc(F)c(F)c1`, the GI50 [1] was 1.1 µM.
`COc1cc(/C=C/c2cccc(O)c2)cc(OC)c1` gave a GI50 [1] of 0.96 µM.
For `COc1ccccc1/C=C/c1cccc(O)c1`, the Apoptosis [2] was 20%.
`Oc1cccc(/C=C/c2ccc(F)c(F)c2)c1` showed a GI50 [1] of 1.6 µM.
`CC[C@@]1(O)C(=O)OCc2c1cc1n(c2=O)Cc2cc3ccccc3nc2-1` [CAMPTOTHECIN] gave an Apoptosis [4] of 37%.
